The source of these data is paper PMC4153739 (Biochemistry, 2012).

For data set [1], the target named is NR1-2b/NR2B NMDA receptor (Rattus norvegicus, UniProt P35439+Q00960). The class given is cell-based.
Data set [2] addresses NR1-2b/NR2C NMDA receptor (Rattus norvegicus, UniProt P35439+Q00961). It is filed as cell-based. Conditions: 10 µM.
For data set [3], the target named is NR1-2b/NR2D NMDA receptor (Rattus norvegicus, UniProt P35439+Q62645). It is filed as cell-based. Conditions: 10 µM.
Data set [4] relates to NR1–2a-containing NMDA receptor subtypes. It is filed as cell-based, rat. Conditions: 10 µM.
Data set [5] is classed as physicochemical. As to conditions: pH 7.
Data set [6] has as its system 6 Hz partial psychomotor seizure.

Sequence of NR1-2b/NR2C NMDA receptor (Q00961 20-1237, other chains not shown): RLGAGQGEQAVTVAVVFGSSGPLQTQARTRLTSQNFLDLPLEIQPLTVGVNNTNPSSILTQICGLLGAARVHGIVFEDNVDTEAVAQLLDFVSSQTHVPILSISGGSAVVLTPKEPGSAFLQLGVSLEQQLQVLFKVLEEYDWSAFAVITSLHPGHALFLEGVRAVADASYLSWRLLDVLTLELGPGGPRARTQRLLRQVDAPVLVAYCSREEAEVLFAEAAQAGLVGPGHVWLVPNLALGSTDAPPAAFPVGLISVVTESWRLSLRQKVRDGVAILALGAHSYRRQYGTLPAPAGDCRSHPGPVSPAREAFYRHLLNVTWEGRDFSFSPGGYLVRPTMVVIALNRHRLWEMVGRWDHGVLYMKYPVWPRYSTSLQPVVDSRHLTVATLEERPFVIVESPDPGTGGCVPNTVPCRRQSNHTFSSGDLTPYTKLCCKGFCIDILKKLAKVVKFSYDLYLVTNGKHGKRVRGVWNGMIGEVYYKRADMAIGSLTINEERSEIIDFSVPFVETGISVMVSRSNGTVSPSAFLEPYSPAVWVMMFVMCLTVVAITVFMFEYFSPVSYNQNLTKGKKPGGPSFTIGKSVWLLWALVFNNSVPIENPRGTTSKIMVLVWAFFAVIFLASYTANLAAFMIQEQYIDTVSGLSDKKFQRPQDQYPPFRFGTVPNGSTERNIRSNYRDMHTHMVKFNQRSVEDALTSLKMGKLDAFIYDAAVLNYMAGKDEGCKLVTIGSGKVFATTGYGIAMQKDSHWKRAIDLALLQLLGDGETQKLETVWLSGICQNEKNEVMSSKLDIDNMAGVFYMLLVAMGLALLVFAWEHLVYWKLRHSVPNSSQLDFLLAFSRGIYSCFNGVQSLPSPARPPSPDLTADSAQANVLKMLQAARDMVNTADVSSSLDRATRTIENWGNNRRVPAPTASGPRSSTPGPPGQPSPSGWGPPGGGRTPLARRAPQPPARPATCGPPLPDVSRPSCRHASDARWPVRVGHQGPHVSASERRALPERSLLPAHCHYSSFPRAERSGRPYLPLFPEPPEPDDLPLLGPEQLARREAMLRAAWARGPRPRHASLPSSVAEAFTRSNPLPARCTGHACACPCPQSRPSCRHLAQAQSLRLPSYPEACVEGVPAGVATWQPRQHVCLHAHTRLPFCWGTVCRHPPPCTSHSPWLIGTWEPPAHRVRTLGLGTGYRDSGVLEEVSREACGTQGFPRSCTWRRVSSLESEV
Sequence of NR1-2b/NR2D NMDA receptor (Q62645 28-1323, other chains not shown): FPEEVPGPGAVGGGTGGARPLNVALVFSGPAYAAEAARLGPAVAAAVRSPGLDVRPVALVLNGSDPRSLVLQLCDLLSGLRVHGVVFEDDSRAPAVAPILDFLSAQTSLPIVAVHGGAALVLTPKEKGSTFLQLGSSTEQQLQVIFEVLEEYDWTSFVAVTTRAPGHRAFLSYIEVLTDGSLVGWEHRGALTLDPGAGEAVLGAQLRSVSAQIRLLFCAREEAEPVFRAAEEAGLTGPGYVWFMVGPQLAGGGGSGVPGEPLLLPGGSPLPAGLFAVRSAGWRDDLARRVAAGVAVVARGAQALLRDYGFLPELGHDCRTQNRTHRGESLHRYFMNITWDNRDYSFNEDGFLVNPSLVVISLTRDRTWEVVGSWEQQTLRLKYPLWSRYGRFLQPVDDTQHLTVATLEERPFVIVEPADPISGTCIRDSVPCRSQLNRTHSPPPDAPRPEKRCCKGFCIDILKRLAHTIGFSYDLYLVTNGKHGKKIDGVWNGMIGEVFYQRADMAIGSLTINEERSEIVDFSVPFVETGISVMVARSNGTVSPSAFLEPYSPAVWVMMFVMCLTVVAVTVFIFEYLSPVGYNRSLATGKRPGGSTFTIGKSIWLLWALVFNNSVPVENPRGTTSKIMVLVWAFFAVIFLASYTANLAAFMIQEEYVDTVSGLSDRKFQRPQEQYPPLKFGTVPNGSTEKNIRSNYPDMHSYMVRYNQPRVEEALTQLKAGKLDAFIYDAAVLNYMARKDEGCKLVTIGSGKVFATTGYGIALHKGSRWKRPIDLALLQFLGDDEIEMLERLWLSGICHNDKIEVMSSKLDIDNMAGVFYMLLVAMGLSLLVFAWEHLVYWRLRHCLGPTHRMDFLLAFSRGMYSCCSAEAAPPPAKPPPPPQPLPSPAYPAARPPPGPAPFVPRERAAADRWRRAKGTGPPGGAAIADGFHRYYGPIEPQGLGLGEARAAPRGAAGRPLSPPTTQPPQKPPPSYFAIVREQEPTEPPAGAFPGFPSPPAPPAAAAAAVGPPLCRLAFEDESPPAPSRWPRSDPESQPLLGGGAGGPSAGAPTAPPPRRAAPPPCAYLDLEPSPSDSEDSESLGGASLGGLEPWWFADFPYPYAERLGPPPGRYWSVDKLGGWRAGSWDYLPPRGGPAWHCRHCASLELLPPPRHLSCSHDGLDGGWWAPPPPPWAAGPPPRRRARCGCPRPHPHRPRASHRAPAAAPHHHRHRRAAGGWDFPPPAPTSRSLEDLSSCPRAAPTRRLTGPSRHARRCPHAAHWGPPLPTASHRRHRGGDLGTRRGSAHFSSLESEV
Sequence of NR1-2b/NR2B NMDA receptor (Q00960 27-1482, other chains not shown): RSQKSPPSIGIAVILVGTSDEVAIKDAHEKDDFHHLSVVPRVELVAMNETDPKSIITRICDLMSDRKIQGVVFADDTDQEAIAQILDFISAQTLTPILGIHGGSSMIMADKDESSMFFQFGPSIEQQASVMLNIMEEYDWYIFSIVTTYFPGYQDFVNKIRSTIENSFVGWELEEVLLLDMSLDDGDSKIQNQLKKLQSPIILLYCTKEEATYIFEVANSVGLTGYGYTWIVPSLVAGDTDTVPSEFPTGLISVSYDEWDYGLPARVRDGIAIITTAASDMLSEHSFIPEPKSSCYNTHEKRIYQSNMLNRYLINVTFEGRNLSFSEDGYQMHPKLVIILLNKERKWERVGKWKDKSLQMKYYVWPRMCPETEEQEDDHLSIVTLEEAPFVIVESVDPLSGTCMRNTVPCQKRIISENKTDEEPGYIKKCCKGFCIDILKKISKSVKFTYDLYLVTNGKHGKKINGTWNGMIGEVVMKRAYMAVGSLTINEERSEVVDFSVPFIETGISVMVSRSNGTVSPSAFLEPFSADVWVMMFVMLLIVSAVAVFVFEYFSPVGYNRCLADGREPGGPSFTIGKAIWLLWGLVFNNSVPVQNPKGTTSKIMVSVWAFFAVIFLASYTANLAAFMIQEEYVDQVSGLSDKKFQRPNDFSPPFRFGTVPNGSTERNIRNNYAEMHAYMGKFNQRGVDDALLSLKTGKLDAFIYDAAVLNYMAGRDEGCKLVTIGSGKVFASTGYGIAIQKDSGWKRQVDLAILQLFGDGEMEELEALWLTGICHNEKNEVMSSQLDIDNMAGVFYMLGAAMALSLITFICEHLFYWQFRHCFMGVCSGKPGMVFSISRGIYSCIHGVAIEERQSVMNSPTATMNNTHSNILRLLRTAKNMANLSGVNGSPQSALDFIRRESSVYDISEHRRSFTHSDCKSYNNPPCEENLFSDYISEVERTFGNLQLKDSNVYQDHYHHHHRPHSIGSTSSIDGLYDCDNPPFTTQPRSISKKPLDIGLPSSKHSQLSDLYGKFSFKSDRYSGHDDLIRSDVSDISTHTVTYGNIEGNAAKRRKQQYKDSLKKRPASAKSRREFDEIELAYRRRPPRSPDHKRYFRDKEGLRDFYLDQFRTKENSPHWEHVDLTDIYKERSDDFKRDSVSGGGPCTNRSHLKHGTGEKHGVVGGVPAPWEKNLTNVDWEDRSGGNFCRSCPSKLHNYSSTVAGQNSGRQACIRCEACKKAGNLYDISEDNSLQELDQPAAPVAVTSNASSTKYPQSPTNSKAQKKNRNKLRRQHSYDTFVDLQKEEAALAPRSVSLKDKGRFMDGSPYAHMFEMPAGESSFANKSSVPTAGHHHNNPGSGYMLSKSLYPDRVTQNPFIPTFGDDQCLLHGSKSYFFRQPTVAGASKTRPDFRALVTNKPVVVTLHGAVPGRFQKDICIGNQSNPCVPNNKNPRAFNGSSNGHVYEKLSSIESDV

As to `CC(C)C[C@H](NC(=O)[C@H](CC(C(=O)O)C(=O)O)NC(=O)[C@H](CCCNC(=N)N)NC(=O)[C@H](C)NC(=O)[C@H](Cc1ccccc1)NC(=O)[C@H](CC(C(=O)O)C(=O)O)NC(=O)[C@@H]1C[C@@H](O)CN1C(=O)[C@H](C)NC(=O)[C@H](CCCCN)NC(=O)[C@H](CC(C(=O)O)C(=O)O)NC(=O)[C@H](C)NC(=O)[C@H](CC(C)C)NC(=O)[C@H](CC(C(=O)O)C(=O)O)NC(=O)[C@H](CC(C(=O)O)C(=O)O)NC(=O)[C@H](CCC(=O)O)NC(=O)CN)C(=O)N[C@@H](C)C(=O)N[C@@H](CC(N)=O)C(N)=O` [ConRl-B], in data set [1], the “discrimination between NR2B and all other NR2 subunits” value is “at least 100 fold”. For the same molecule, in data set [2], the “antagonist activity at the highest concentration tested, NR2C” value is listed as “little or no antagonist activity”. The “antagonist activity at the highest concentration tested, NR2D” value in data set [3] is “little or no antagonist activity”. For the same molecule, the “potency on NR1-2a-containing subtypes” value in data set [4] is given as “little or no potency”. Further, in data set [5], the “estimated helical content in the presence of calcium” value is recorded as 59%, the “estimated percentage of helicity in the absence of calcium” value is 10% and the “percent of helical transition induced by calcium” value came to 49%. In data set [6] (mouse, in vivo), the “rectal body temperature versus saline control group” value is given as “did not differ between groups”. Also, in data set [6] (n=8), the “mice protected from seizures” value stood at 50%.
